This assay has as its target T1, Alpha-amylase 1A (Homo sapiens) (UniProt P0DUB6).
T1 sequence (whole entry): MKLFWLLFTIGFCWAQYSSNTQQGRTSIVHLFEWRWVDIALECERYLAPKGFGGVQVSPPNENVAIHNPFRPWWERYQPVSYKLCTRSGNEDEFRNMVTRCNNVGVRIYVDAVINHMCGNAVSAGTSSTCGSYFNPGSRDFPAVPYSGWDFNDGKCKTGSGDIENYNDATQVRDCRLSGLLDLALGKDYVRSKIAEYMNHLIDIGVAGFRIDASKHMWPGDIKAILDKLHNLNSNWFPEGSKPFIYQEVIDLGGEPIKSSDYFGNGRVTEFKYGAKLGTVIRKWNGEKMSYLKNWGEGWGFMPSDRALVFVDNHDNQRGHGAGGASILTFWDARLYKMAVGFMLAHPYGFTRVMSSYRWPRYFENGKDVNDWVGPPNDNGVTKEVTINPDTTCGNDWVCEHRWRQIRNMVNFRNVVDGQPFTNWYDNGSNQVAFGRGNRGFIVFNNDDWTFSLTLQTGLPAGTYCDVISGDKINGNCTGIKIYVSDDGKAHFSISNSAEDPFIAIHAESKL
Kind of assay: Activity of human salivary alpha amylase by FRET assay.

Activity calls are given as the source filed them. The calls are words filed in the database; no cut-off is given here.

Consider `CN(C)c1cccc2c(S(=O)(=O)NCCSCCCCCS[C@@H]3O[C@H](CO)[C@@H](O[C@H]4O[C@H](COCc5ccc6ccccc6c5)[C@@H](O)[C@H](O)[C@H]4O)[C@H](O)[C@H]3O)cccc12`, for which the result was inactive.
Consider `CN(C)c1cccc2c(S(=O)(=O)NCCSCCCCCS[C@@H]3O[C@H](CO)[C@@H](O[C@H]4O[C@H](CO)[C@@H](O[C@H]5O[C@H](CO)[C@@H](O[C@H]6O[C@H](CO)[C@@H](O[C@H]7O[C@H](CO)[C@@H](O[C@H]8O[C@H](COCc9ccc%10ccccc%10c9)[C@@H](O)[C@H](O)[C@H]8O)[C@H](O)[C@H]7O)[C@H](O)[C@H]6O)[C@H](O)[C@H]5O)[C@H](O)[C@H]4O)[C@H](O)[C@H]3O)cccc12`, for which the result was Active.

Values taken from ChEMBL document CHEMBL1155403, “Simple and conveniently accessible bi-fluorescence-labeled substrates for amylases” (Bioorg Med Chem Lett, 2010).
